In patent US20230278972A1, “SUBSTITUTED HALOALKYL SULFONANILIDE HERBICIDES” (FMC Corporation, priority 2020, published 2023):

Columns and labels:
Format in all cases: in vivo
[1] = system: kochia (Bassia scoparia); assay: Test A preemergence, kochia; conditions: Preemergence; for Kochia plant response rating: visual injury on 0 to 100 scale (0 no effect, 100 complete control), approximately 10 days; for Plant response rating, Kochia: 0 to 100 scale (0 no effect, 100 complete control)
How it was run: (§1)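 Postemergence ratings come from foliar sprays onto one- to two-leaf plants of 2 to 10 cm grown in loam/sand; preemergence ratings come from a directed spray onto the soil of newly seeded pots. Formulation was a surfactant-containing non-phytotoxic solvent blend.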

[2] = system: ragweed (common ragweed, Ambrosia artemisiifolia); assay: Test A postemergence, ragweed; conditions: Postemergence, 0 to 100 scale (0 no effect, 100 complete control); for Plant response rating, Ragweed: 125 g ai/ha; for Ragweed plant response rating: 500 g ai/ha, visual injury vs untreated controls after approx. 10 days
How it was run: as §1

[3] = system: barnyardgrass (Echinochloa crus-galli); assay: Test A preemergence, barnyardgrass; conditions: Preemergence; for Plant response rating, Barnyardgrass: 0 to 100 scale (0 no effect, 100 complete control)
How it was run: as §1

[4] = system: Foxtail, Giant (giant foxtail, Setaria faberi); assay: Test A postemergence, Foxtail, Giant; conditions: Postemergence, 0 to 100 scale (0 no effect, 100 complete control); for Plant response rating, Foxtail, Giant: 125 g ai/ha; for Foxtail, Giant plant response rating: 500 g ai/ha, visual injury vs untreated controls after approx. 10 days
How it was run: as §1

[5] = system: Ryegrass, Italian (Italian ryegrass, Lolium multiflorum); assay: Test A preemergence, Ryegrass, Italian; conditions: Preemergence; for Ryegrass, Italian plant response rating: visual injury on 0 to 100 scale (0 no effect, 100 complete control), approximately 10 days; for Plant response rating, Ryegrass, Italian: 0 to 100 scale (0 no effect, 100 complete control)
How it was run: as §1

[6] = system: corn (Zea mays); assay: Test A postemergence, corn; conditions: Postemergence, 0 to 100 scale (0 no effect, 100 complete control); for Plant response rating, Corn: 125 g ai/ha; for Corn plant response rating: 500 g ai/ha, visual injury vs untreated controls after approx. 10 days
How it was run: as §1

[7] = system: Foxtail, Giant (giant foxtail, Setaria faberi); assay: Test A preemergence, Foxtail, Giant; conditions: Preemergence; for Foxtail, Giant plant response rating: visual injury on 0 to 100 scale (0 no effect, 100 complete control), approximately 10 days; for Plant response rating, Foxtail, Giant: 0 to 100 scale (0 no effect, 100 complete control)
How it was run: as §1

[8] = system: galium (catchweed bedstraw, Galium aparine); assay: Test A postemergence, galium; conditions: Postemergence, 0 to 100 scale (0 no effect, 100 complete control); for Plant response rating, Galium: 125 g ai/ha; for Galium plant response rating: 500 g ai/ha, visual injury vs untreated controls after approx. 10 days
How it was run: (§2)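 Barnyardgrass, wheat and galium were treated postemergence at the one- to two-leaf stage (2 to 10 cm) with chemicals formulated in non-phytotoxic solvent plus surfactant, grown in loam soil–sand pots. Pigweed was sown in the same blend and given a preemergence directed soil spray.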

[9] = system: ragweed (common ragweed, Ambrosia artemisiifolia); assay: Test A preemergence, ragweed; conditions: Preemergence; for Ragweed plant response rating: visual injury on 0 to 100 scale (0 no effect, 100 complete control), approximately 10 days; for Plant response rating, Ragweed: 0 to 100 scale (0 no effect, 100 complete control)
How it was run: as §1

[10] = system: pigweed (Amaranthus retroflexus); assay: Test A preemergence, pigweed; conditions: for Pigweed plant response rating: visual injury on 0 to 100 scale (0 no effect, 100 complete control), approximately 10 days; for Plant response rating, Pigweed: 0 to 100 scale (0 no effect, 100 complete control)
Description: Seeds of plant species selected from barnyardgrass (Echinochloa crus-galli), kochia (Bassia scoparia), ragweed (common ragweed, Ambrosia artemisiifolia), Ryegrass, Italian (Italian ryegrass, Lolium multiflorum), Foxtail, Giant (giant foxtail, Setaria faberi), and pigweed (Amaranthus retroflexus) were planted into a blend of loam soil and sand and treated preemergence with a directed soil spray using test chemicals formulated in a non-phytotoxic solvent mixture which included a surfactant. At the same time, plants selected from these weed species and also wheat (Triticum aestivum), corn (Zea mays), blackgrass (Alopecurus myosuroides), and galium (catchweed bedstraw, Galium aparine) were planted in pots containing the same blend of loam soil and sand and treated with postemergence applications of test chemicals formulated in the same manner. Plants ranged in height from 2 to 10 cm and were in the one- to two-leaf stage for the postemergence treatment. […] A dash (-) response means no test result.

[11] = system: blackgrass (Alopecurus myosuroides); assay: Test A postemergence, blackgrass; conditions: Postemergence, 0 to 100 scale (0 no effect, 100 complete control); for Plant response rating, Blackgrass: 125 g ai/ha; for Blackgrass plant response rating: 500 g ai/ha, visual injury vs untreated controls after approx. 10 days
How it was run: as §1

[12] = system: pigweed (Amaranthus retroflexus); assay: Test A postemergence, pigweed; conditions: Postemergence, 0 to 100 scale (0 no effect, 100 complete control); for Plant response rating, Pigweed: 125 g ai/ha; for Pigweed plant response rating: 500 g ai/ha, visual injury vs untreated controls after approx. 10 days
How it was run: as §1

[13] = system: Ryegrass, Italian (Italian ryegrass, Lolium multiflorum); assay: Test A postemergence, Ryegrass, Italian; conditions: Postemergence, 0 to 100 scale (0 no effect, 100 complete control); for Plant response rating, Ryegrass, Italian: 125 g ai/ha; for Ryegrass, Italian plant response rating: 500 g ai/ha, visual injury vs untreated controls after approx. 10 days
How it was run: as §1

[14] = system: wheat (Triticum aestivum); assay: Test A postemergence, wheat; conditions: Postemergence, 0 to 100 scale (0 no effect, 100 complete control); for Plant response rating, Wheat: 125 g ai/ha; for Wheat plant response rating: 500 g ai/ha, visual injury vs untreated controls after approx. 10 days
How it was run: as §2

[15] = system: kochia (Bassia scoparia); assay: Test A postemergence, kochia; conditions: Postemergence, 0 to 100 scale (0 no effect, 100 complete control); for Plant response rating, Kochia: 125 g ai/ha; for Kochia plant response rating: 500 g ai/ha, visual injury vs untreated controls after approx. 10 days
How it was run: as §1

[16] = 125 g ai/ha, visual injury, approx. 10 days

| SMILES | Ragweed plant response rating [2] | Plant response rating, Barnyardgrass ([3]; 500 g ai/ha) | Foxtail, Giant plant response rating [4] | Corn plant response rating [6] | Galium plant response rating [8] | Blackgrass plant response rating [11] | Pigweed plant response rating [12] | Ryegrass, Italian plant response rating [13] | Wheat plant response rating [14] | Kochia plant response rating [15] | Plant response rating, Kochia [1, 16] | Kochia plant response rating ([1]; 500 g ai/ha) | Plant response rating, Ragweed [2] | Plant response rating, Barnyardgrass [3, 16] | Plant response rating, Foxtail, Giant [4] | Plant response rating, Ryegrass, Italian [5, 16] | Ryegrass, Italian plant response rating ([5]; 500 g ai/ha) | Plant response rating, Corn [6] | Plant response rating, Foxtail, Giant [7, 16] | Foxtail, Giant plant response rating ([7]; 500 g ai/ha) | further results |
| --- | --- | --- | --- | --- | --- | --- | --- | --- | --- | --- | --- | --- | --- | --- | --- | --- | --- | --- | --- | --- | --- |
| Cc1cc(C)c(N(S(=O)(=O)C(F)(F)F)S(=O)(=O)C(F)(F)F)cc1-c1ccnn(C)c1=O [Compound 76] | 90 | 90 | 90 | 70 | 100 | 50 | 90 | 80 | 80 | 90 | – | – | – | – | – | – | – | – | – | – | Kochia plant response rating ([1]; 125 g ai/ha): 60; Plant response rating, Kochia ([1]; 500 g ai/ha): 90; Plant response rating, Ragweed ([2]; visual injury approx. 10 days): 60; Barnyardgrass plant response rating ([3]; 125 g ai/ha, visual injury on 0 to 100 scale (0 no effect, 100 complete control), approximately 10 days): 90; Plant response rating, Foxtail, Giant ([4]; visual injury approx. 10 days): 90; Ryegrass, Italian plant response rating ([5]; 125 g ai/ha): 60; Plant response rating, Ryegrass, Italian ([5]; 500 g ai/ha): 100; Plant response rating, Corn ([6]; visual injury approx. 10 days): 0; Foxtail, Giant plant response rating ([7]; 125 g ai/ha): 100; Plant response rating, Foxtail, Giant ([7]; 500 g ai/ha): 100; Plant response rating, Galium ([8]; visual injury approx. 10 days): 90; Ragweed plant response rating ([9]; 125 g ai/ha): 70; Plant response rating, Ragweed ([9]; 500 g ai/ha): 90; Pigweed plant response rating ([10]; 125 g ai/ha): 50; Plant response rating, Pigweed ([10]; 500 g ai/ha): 100; Plant response rating, Blackgrass ([11]; visual injury approx. 10 days): 50; Plant response rating, Pigweed ([12]; visual injury approx. 10 days): 70; Plant response rating, Ryegrass, Italian ([13]; visual injury approx. 10 days): 70; Plant response rating, Wheat ([14]; visual injury approx. 10 days): 40; Plant response rating, Kochia ([15]; visual injury approx. 10 days): 50 |
| Cc1cc(C)c(N(S(=O)(=O)C(F)(F)F)S(=O)(=O)C(F)(F)F)cc1C1=NOC(C)(CCl)C1 (stereo not drawn) [Compound 227] | 10 | 90 | 20 | 0 | 90 | 20 | 50 | 0 | 40 | 60 | 60 | 90 | 0 | 60 | 0 | 40 | 100 | 10 | 90 | 100 | Plant response rating, Galium [8]: 40; Plant response rating, Ragweed [9, 16]: 30; Ragweed plant response rating ([9]; 500 g ai/ha): 80; Plant response rating, Pigweed [10, 16]: 50; Pigweed plant response rating ([10]; 500 g ai/ha): 80; Plant response rating, Blackgrass [11]: 0; Plant response rating, Pigweed [12]: 20; Plant response rating, Ryegrass, Italian [13]: 0; Plant response rating, Wheat [14]: 70; Plant response rating, Kochia [15]: 10 |
| Cc1cc(C)c(C2=NOC(C)(CCl)C2)cc1NS(=O)(=O)C(F)(F)F (stereo not drawn) [Compound 226] | 90 | 100 | 60 | 70 | 80 | 50 | 80 | 60 | 60 | 70 | 40 | 90 | 30 | 90 | 20 | 90 | 100 | 0 | 90 | 100 | Plant response rating, Galium [8]: 60; Plant response rating, Ragweed [9, 16]: 30; Ragweed plant response rating ([9]; 500 g ai/ha): 90; Plant response rating, Pigweed [10, 16]: 80; Pigweed plant response rating ([10]; 500 g ai/ha): 100; Plant response rating, Blackgrass [11]: 20; Plant response rating, Pigweed [12]: 30; Plant response rating, Ryegrass, Italian [13]: 30; Plant response rating, Wheat [14]: 0; Plant response rating, Kochia [15]: 10 |
